Results as given in PubChem BioAssay (NCI).
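In this assay, cells in 96-well plates receive the compound at five concentrations for 48 hours. Endpoints are linearly interpolated between the surrounding concentrations. Here, GI50 denotes the concentration required for 50% inhibition of growth. TGI denotes the concentration required for complete inhibition of growth.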

Columns and labels:
Experiment in all cases: growth of human tumour cells (NCI), 48 h
KM12 colon = system: KM12 colon
CCRF-CEM leukemia = system: CCRF-CEM leukemia
OVCAR-3 ovarian = system: OVCAR-3 ovarian
HOP-92 NSCLC = system: HOP-92 NSCLC
RPMI-8226 leukemia = system: RPMI-8226 leukemia
SNB-19 CNS = system: SNB-19 CNS
PC-3 prostate = system: PC-3 prostate
A498 renal = system: A498 renal
OVCAR-4 ovarian = system: OVCAR-4 ovarian
HT29 colon = system: HT29 colon
BT-549 breast = system: BT-549 breast
OVCAR-5 ovarian = system: OVCAR-5 ovarian
RXF 393 renal = system: RXF 393 renal
NCI-H226 lung = system: NCI-H226 lung
SK-MEL-5 melanoma = system: SK-MEL-5 melanoma
DU-145 prostate = system: DU-145 prostate
HOP-62 NSCLC = system: HOP-62 NSCLC
HCT-15 colon = system: HCT-15 colon
COLO 205 colon = system: COLO 205 colon
SK-OV-3 ovarian = system: SK-OV-3 ovarian
LOX IMVI melanoma = system: LOX IMVI melanoma
SF-268 CNS = system: SF-268 CNS
786-0 renal = system: 786-0 renal
MCF7 breast = system: MCF7 breast
HCC-2998 colon = system: HCC-2998 colon
NCI/ADR-RES ovarian = system: NCI/ADR-RES ovarian
HL-60(TB) leukemia = system: HL-60(TB) leukemia
SK-MEL-28 melanoma = system: SK-MEL-28 melanoma
NCI-H23 lung = system: NCI-H23 lung
NCI-H460 lung = system: NCI-H460 lung
HS 578T breast = system: HS 578T breast
SF-295 CNS = system: SF-295 CNS
UACC-62 melanoma = system: UACC-62 melanoma
SN12C renal = system: SN12C renal
CAKI-1 renal = system: CAKI-1 renal
SW-620 colon = system: SW-620 colon
SF-539 CNS = system: SF-539 CNS
IGROV1 ovarian = system: IGROV1 ovarian
ACHN renal = system: ACHN renal
M14 melanoma = system: M14 melanoma
TK-10 renal = system: TK-10 renal
T-47D breast = system: T-47D breast
NCI-H522 lung = system: NCI-H522 lung
U251 CNS = system: U251 CNS
MALME-3M melanoma = system: MALME-3M melanoma
SR leukemia = system: SR leukemia
K-562 leukemia = system: K-562 leukemia
MOLT-4 leukemia = system: MOLT-4 leukemia
MDA-MB-468 breast = system: MDA-MB-468 breast
UACC-257 melanoma = system: UACC-257 melanoma
OVCAR-8 ovarian = system: OVCAR-8 ovarian
MDA-MB-435 = system: MDA-MB-435
EKVX NSCLC = system: EKVX NSCLC
HCT-116 colon = system: HCT-116 colon
A549 NSCLC = system: A549 NSCLC

Structure (SMILES): Cc1[nH]nc2ccc3nc(-c4cn[nH]c4C(F)(F)F)c4c(c3c12)CCCC4
- GI50 (KM12 colon): 2.82 µM
- TGI (KM12 colon): 13.3 µM
- GI50 (CCRF-CEM leukemia): 3.49 µM
- TGI (CCRF-CEM leukemia): 19.1 µM
- GI50 (OVCAR-3 ovarian): 4.15 µM
- TGI (OVCAR-3 ovarian): 14.6 µM
- GI50 (HOP-92 NSCLC): 2.86 µM
- TGI (HOP-92 NSCLC): 8.51 µM
- GI50 (RPMI-8226 leukemia): 2.49 µM
- TGI (RPMI-8226 leukemia): 30.3 µM
- GI50 (SNB-19 CNS): 5.14 µM
- TGI (SNB-19 CNS): 17.9 µM
- GI50 (PC-3 prostate): 3.94 µM
- TGI (PC-3 prostate): 17.1 µM
- GI50 (A498 renal): 2.32 µM
- TGI (A498 renal): 6.77 µM
- GI50 (OVCAR-4 ovarian): 8.96 µM
- TGI (OVCAR-4 ovarian): 21.2 µM
- GI50 (HT29 colon): 3.9 µM
- TGI (HT29 colon): 12.7 µM
- GI50 (BT-549 breast): 2.1 µM
- TGI (BT-549 breast): 5.19 µM
- GI50 (OVCAR-5 ovarian): 3.15 µM
- TGI (OVCAR-5 ovarian): 13.7 µM
- GI50 (RXF 393 renal): 1.37 µM
- TGI (RXF 393 renal): 4.39 µM
- GI50 (NCI-H226 lung): 5.15 µM
- TGI (NCI-H226 lung): 43.7 µM
- GI50 (SK-MEL-5 melanoma): 2.94 µM
- TGI (SK-MEL-5 melanoma): 9.26 µM
- GI50 (DU-145 prostate): 3.99 µM
- TGI (DU-145 prostate): 18.5 µM
- GI50 (HOP-62 NSCLC): 3.53 µM
- TGI (HOP-62 NSCLC): 12.5 µM
- GI50 (HCT-15 colon): 2.75 µM
- TGI (HCT-15 colon): 9.34 µM
- GI50 (COLO 205 colon): 3.24 µM
- TGI (COLO 205 colon): 10.9 µM
- GI50 (SK-OV-3 ovarian): 1.78 µM
- TGI (SK-OV-3 ovarian): 5.31 µM
- GI50 (LOX IMVI melanoma): 3.55 µM
- TGI (LOX IMVI melanoma): 13.1 µM
- GI50 (SF-268 CNS): 2.99 µM
- TGI (SF-268 CNS): 13.5 µM
- GI50 (786-0 renal): 2.95 µM
- TGI (786-0 renal): 12.5 µM
- GI50 (MCF7 breast): 4.03 µM
- TGI (MCF7 breast): 16.8 µM
- GI50 (HCC-2998 colon): 3.52 µM
- TGI (HCC-2998 colon): 12.6 µM
- GI50 (NCI/ADR-RES ovarian): 11.7 µM
- TGI (NCI/ADR-RES ovarian): 30.1 µM
- GI50 (HL-60(TB) leukemia): 2.72 µM
- TGI (HL-60(TB) leukemia): 6.92 µM
- GI50 (SK-MEL-28 melanoma): 3.79 µM
- TGI (SK-MEL-28 melanoma): 14.2 µM
- GI50 (NCI-H23 lung): 2.95 µM
- TGI (NCI-H23 lung): 11 µM
- GI50 (NCI-H460 lung): 3 µM
- TGI (NCI-H460 lung): 13.1 µM
- GI50 (HS 578T breast): 2.14 µM
- TGI (HS 578T breast): 5.19 µM
- GI50 (SF-295 CNS): 3.34 µM
- TGI (SF-295 CNS): 14 µM
- GI50 (UACC-62 melanoma): 2.09 µM
- TGI (UACC-62 melanoma): 6.64 µM
- GI50 (SN12C renal): 3.31 µM
- TGI (SN12C renal): 13.3 µM
- GI50 (CAKI-1 renal): 3.3 µM
- TGI (CAKI-1 renal): 11.8 µM
- GI50 (SW-620 colon): 2.48 µM
- TGI (SW-620 colon): 11.3 µM
- GI50 (SF-539 CNS): 2.03 µM
- TGI (SF-539 CNS): 6.54 µM
- GI50 (IGROV1 ovarian): 2.61 µM
- TGI (IGROV1 ovarian): 7.43 µM
- GI50 (ACHN renal): 2.26 µM
- TGI (ACHN renal): 11.6 µM
- GI50 (M14 melanoma): 2.77 µM
- TGI (M14 melanoma): 10.9 µM
- GI50 (TK-10 renal): 2.29 µM
- TGI (TK-10 renal): 11.7 µM
- GI50 (T-47D breast): 2.4 µM
- TGI (T-47D breast): 12.1 µM
- GI50 (NCI-H522 lung): 1.44 µM
- TGI (NCI-H522 lung): 5.06 µM
- GI50 (U251 CNS): 4.41 µM
- TGI (U251 CNS): 17.6 µM
- GI50 (MALME-3M melanoma): 4.04 µM
- TGI (MALME-3M melanoma): 13.6 µM
- GI50 (SR leukemia): 1.56 µM
- TGI (SR leukemia): 4.13 µM
- GI50 (K-562 leukemia): 3.5 µM
- TGI (K-562 leukemia): 19.9 µM
- GI50 (MOLT-4 leukemia): 2.16 µM
- TGI (MOLT-4 leukemia): 5.89 µM
- GI50 (MDA-MB-468 breast): 2.46 µM
- TGI (MDA-MB-468 breast): 8.78 µM
- GI50 (UACC-257 melanoma): 8.47 µM
- TGI (UACC-257 melanoma): 22 µM
- GI50 (OVCAR-8 ovarian): 4.44 µM
- TGI (OVCAR-8 ovarian): 18.7 µM
- GI50 (MDA-MB-435): 3.01 µM
- TGI (MDA-MB-435): 11.2 µM
- GI50 (EKVX NSCLC): 2.84 µM
- TGI (EKVX NSCLC): 9.62 µM
- GI50 (HCT-116 colon): 2.58 µM
- TGI (HCT-116 colon): 10.3 µM
- GI50 (A549 NSCLC): 3.54 µM
- TGI (A549 NSCLC): 13 µM
